Reference: US7851474B2, “Dipiperazinyl ketones and related analogues” (Neurogen Corporation, priority 2005, dated 2010)

Target: T1, chimeric human H3 receptor (Homo sapiens, UniProt Q9Y5N1, E19D)
T1 construct: made in house; host or cells: Sf9 insect cells (baculovirus infection); P2 membrane preparation
Test: Chimeric human H3 receptor GTP binding assay (agonist-stimulated GTP-gamma35S binding, Example 7)
Type: biochemical
Details: Table II, "*" in Ki; assay of Example 7; read-out: Ki
Outline: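 IC50 values come from non-linear regression of dose-response curves of filter-bound GTP-gamma^35S, counted by scintillation. Membranes were from infected Sf9 cells carrying receptor plus G-protein subunits, 35 μg/tube, with 10 μM GDP present.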

T1 sequence (Q9Y5N1 with tags, fused parts or gaps E19D): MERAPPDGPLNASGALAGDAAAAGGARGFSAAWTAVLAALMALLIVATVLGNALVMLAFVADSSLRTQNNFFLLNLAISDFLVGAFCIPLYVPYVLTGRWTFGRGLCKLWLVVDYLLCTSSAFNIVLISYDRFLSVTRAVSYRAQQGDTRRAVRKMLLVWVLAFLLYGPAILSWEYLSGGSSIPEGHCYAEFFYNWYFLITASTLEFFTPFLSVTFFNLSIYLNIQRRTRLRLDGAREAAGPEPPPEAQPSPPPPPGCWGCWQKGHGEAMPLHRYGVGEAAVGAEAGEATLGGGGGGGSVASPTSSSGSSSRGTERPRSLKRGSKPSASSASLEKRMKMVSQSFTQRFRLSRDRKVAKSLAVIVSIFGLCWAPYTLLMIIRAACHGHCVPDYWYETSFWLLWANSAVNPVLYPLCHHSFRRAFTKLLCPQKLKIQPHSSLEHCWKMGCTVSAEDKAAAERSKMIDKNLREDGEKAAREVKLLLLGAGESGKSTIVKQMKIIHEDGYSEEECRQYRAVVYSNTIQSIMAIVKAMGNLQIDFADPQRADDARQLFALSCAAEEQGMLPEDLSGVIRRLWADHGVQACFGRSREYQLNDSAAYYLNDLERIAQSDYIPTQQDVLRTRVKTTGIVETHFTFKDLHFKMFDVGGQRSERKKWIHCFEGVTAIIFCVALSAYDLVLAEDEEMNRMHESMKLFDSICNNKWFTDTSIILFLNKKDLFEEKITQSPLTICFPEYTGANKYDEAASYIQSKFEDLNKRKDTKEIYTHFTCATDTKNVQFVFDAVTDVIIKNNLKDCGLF

Ki, < 1000 nM:
CC1CCCN1C(=O)c1ccc(N2CCN(CC(=O)N3CCN(C4CCC4)CC3)CC2)nc1 (stereo not shown) [Compound 652, 1-cyclobutyl-4-[(4-{5-[(2-methylpyrrolidin-1-yl)carbonyl]pyridin-1-yl}piperazin-1-yl)acetyl]piperazine]
CC1CC(C)CN(C(=O)c2ccc(N3CCN(CC(=O)N4CCN(C5CCC5)CC4)CC3)nc2)C1 (stereo not shown) [Compound 653, 1-cyclobutyl-4-[(4-{5-[(3,5-dimethylpiperidin-1-yl)carbonyl]pyridin-2-yl}piperazin-1-yl)acetyl]piperazine]
O=C(CN1CCC(F)(c2ccccc2)CC1)N1CCN(C2CCC2)CC1 [Compound 654, 1-cyclobutyl-4-[(4-fluoro-4-phenylpiperidin-1-yl)acetyl]piperazine]
O=C(CN1CC=C(c2ccccc2)CC1)N1CCN(C2CCC2)CC1 [Compound 656, 1-cyclobutyl-4-[(4-phenyl-3,6-dihydropyridin-1(2H)-yl)acetyl]piperazine]
O=C(CN1CCN(c2ccccc2)CC1)N1CCN(C2CCC2)CC1 [Compound 657, 1-cyclobutyl-4-[(4-phenylpiperazin-1-yl)acetyl]piperazine]
O=C(CN1CCC(N2CCCC2)CC1)N1CCN(C2CCC2)CC1 [Compound 658, 1-cyclobutyl-4-[(4-pyrrolidin-1-ylpiperidin-1-yl)acetyl]piperazine]
O=C(CN1CCN(c2ccc(-c3cccc(Cl)c3Cl)cc2)CC1)N1CCN(C2CCC2)CC1 [Compound 665, 1-cyclobutyl-4-{[4-(2′,3′-dichlorobiphenyl-4-yl)piperazin-1-yl]acetyl}piperazine]
O=C(CN1CCN(c2cccc(Cl)c2Cl)CC1)N1CCN(C2CCC2)CC1 [Compound 666, 1-cyclobutyl-4-{[4-(2,3-dichlorophenyl)piperazin-1-yl]acetyl}piperazine]
O=C(CN1CCN(c2ccc(-c3cccc(F)c3F)cc2)CC1)N1CCN(C2CCC2)CC1 [Compound 667, 1-cyclobutyl-4-{[4-(2′,3′-difluorobiphenyl-4-yl)piperazin-1-yl]acetyl}piperazine]
Cc1cccc(N2CCN(CC(=O)N3CCN(C4CCC4)CC3)CC2)c1C [Compound 672, 1-cyclobutyl-4-{[4-(2,3-dimethylphenyl)piperazin-1-yl]acetyl}piperazine]
Cc1cc(C)c(-c2ccc(N3CCN(CC(=O)N4CCN(C5CCC5)CC4)CC3)cc2)c(C)c1 [Compound 673, 1-cyclobutyl-4-{[4-(2′,4′,6′-trimethylbiphenyl-4-yl)piperazin-1-yl]acetyl}piperazine]
O=C(CN1CCN(c2ccc(-c3ccc(Cl)cc3Cl)cc2)CC1)N1CCN(C2CCC2)CC1 [Compound 675, 1-cyclobutyl-4-{[4-(2′,4′-dichlorobiphenyl-4-yl)piperazin-1-yl]acetyl}piperazine]
O=C(CN1CCN(c2ccc(-c3ccc(F)cc3F)cc2)CC1)N1CCN(C2CCC2)CC1 [Compound 676, 1-cyclobutyl-4-{[4-(2′,4′-difluorobiphenyl-4-yl)piperazin-1-yl]acetyl}piperazine]
COc1ccc(-c2ccc(N3CCN(CC(=O)N4CCN(C5CCC5)CC4)CC3)cc2)c(OC)c1 [Compound 678, 1-cyclobutyl-4-{[4-(2′,4′-dimethoxybiphenyl-4-yl)piperazin-1-yl]acetyl}piperazine]
O=C(CN1CCN(c2ccc(-c3cc(Cl)ccc3Cl)cc2)CC1)N1CCN(C2CCC2)CC1 [Compound 682, 1-cyclobutyl-4-{[4-(2′,5′-dichlorobiphenyl-4-yl)piperazin-1-yl]acetyl}piperazine]
COc1cc(F)c(-c2ccc(N3CCN(CC(=O)N4CCN(C5CCC5)CC4)CC3)cc2)cc1F [Compound 683, 1-cyclobutyl-4-{[4-(2′,5′-difluoro-4′-methoxybiphenyl-4-yl)piperazin-1-yl]acetyl}piperazine]
O=C(CN1CCN(c2ccc(-c3cc(F)ccc3F)cc2)CC1)N1CCN(C2CCC2)CC1 [Compound 685, 1-cyclobutyl-4-{[4-(2′,5′-difluorobiphenyl-4-yl)piperazin-1-yl]acetyl}piperazine]
COc1ccc(OC)c(-c2ccc(N3CCN(CC(=O)N4CCN(C5CCC5)CC4)CC3)cc2)c1 [Compound 687, 1-cyclobutyl-4-{[4-(2′,5′-dimethoxybiphenyl-4-yl)piperazin-1-yl]acetyl}piperazine]
COc1cccc(OC)c1-c1ccc(N2CCN(CC(=O)N3CCN(C4CCC4)CC3)CC2)cc1 [Compound 695, 1-cyclobutyl-4-{[4-(2′,6′-dimethoxybiphenyl-4-yl)piperazin-1-yl]acetyl}piperazine]
Cc1cccc(C)c1-c1ccc(N2CCN(CC(=O)N3CCN(C4CCC4)CC3)CC2)cc1 [Compound 697, 1-cyclobutyl-4-{[4-(2′,6′-dimethylbiphenyl-4-yl)piperazin-1-yl]acetyl}piperazine]
Cc1cccc(C)c1N1CCN(CC(=O)N2CCN(C3CCC3)CC2)CC1 [Compound 698, 1-cyclobutyl-4-{[4-(2,6-dimethylphenyl)piperazin-1-yl]acetyl}piperazine]
CCOc1ccccc1-c1ccc(N2CCN(CC(=O)N3CCN(C4CCC4)CC3)CC2)cc1 [Compound 700, 1-cyclobutyl-4-{[4-(2′-ethoxybiphenyl-4-yl)piperazin-1-yl]acetyl}piperazine]
Cc1ccc(-c2ccc(N3CCN(CC(=O)N4CCN(C5CCC5)CC4)CC3)cc2)c(F)c1 [Compound 704, 1-cyclobutyl-4-{[4-(2′-fluoro-4′-methylbiphenyl-4-yl)piperazin-1-yl]acetyl}piperazine]
Cc1ccc(F)c(-c2ccc(N3CCN(CC(=O)N4CCN(C5CCC5)CC4)CC3)cc2)c1 [Compound 705, 1-cyclobutyl-4-{[4-(2′-fluoro-5′-methylbiphenyl-4-yl)piperazin-1-yl]acetyl}piperazine]
O=C(CN1CCN(c2ccc(-c3ccccc3F)cc2)CC1)N1CCN(C2CCC2)CC1 [Compound 707, 1-cyclobutyl-4-{[4-(2′-fluorobiphenyl-4-yl)piperazin-1-yl]acetyl}piperazine]
O=C(CN1CCN(c2ccccc2F)CC1)N1CCN(C2CCC2)CC1 [Compound 708, 1-cyclobutyl-4-{[4-(2-fluorophenyl)piperazin-1-yl]acetyl}piperazine]
CC(C)c1ccccc1-c1ccc(N2CCN(CC(=O)N3CCN(C4CCC4)CC3)CC2)cc1 [Compound 709, 1-cyclobutyl-4-{[4-(2′-isopropylbiphenyl-4-yl)piperazin-1-yl]acetyl}piperazine]
COc1ccc(C)cc1-c1ccc(N2CCN(CC(=O)N3CCN(C4CCC4)CC3)CC2)cc1 [Compound 710, 1-cyclobutyl-4-{[4-(2′-methoxy-5′-methylbiphenyl-4-yl)piperazin-1-yl]acetyl}piperazine]
COc1ccccc1-c1ccc(N2CCN(CC(=O)N3CCN(C4CCC4)CC3)CC2)cc1 [Compound 712, 1-cyclobutyl-4-{[4-(2′-methoxybiphenyl-4-yl)piperazin-1-yl]acetyl}piperazine]
O=C(CN1CCN(c2ccc(-c3ccccc3Oc3ccccc3)cc2)CC1)N1CCN(C2CCC2)CC1 [Compound 719, 1-cyclobutyl-4-{[4-(2′-phenoxybiphenyl-4-yl)piperazin-1-yl]acetyl}piperazine]
CC(Oc1ccccc1)C(=O)N1CCN(CC(=O)N2CCN(C3CCC3)CC2)CC1 (stereo not shown) [Compound 720, 1-cyclobutyl-4-{[4-(2-phenoxypropanoyl)piperazin-1-yl]acetyl}piperazine]
COc1cc(-c2ccc(N3CCN(CC(=O)N4CCN(C5CCC5)CC4)CC3)cc2)cc(OC)c1OC [Compound 725, 1-cyclobutyl-4-{[4-(3′,4′,5′-trimethoxybiphenyl-4-yl)piperazin-1-yl]acetyl}piperazine]
O=C(CN1CCN(c2ccc(-c3ccc(Cl)c(Cl)c3)cc2)CC1)N1CCN(C2CCC2)CC1 [Compound 727, 1-cyclobutyl-4-{[4-(3′,4′-dichlorobiphenyl-4-yl)piperazin-1-yl]acetyl}piperazine]
O=C(CN1CCN(c2ccc(-c3ccc(F)c(F)c3)cc2)CC1)N1CCN(C2CCC2)CC1 [Compound 730, 1-cyclobutyl-4-{[4-(3′,4′-difluorobiphenyl-4-yl)piperazin-1-yl]acetyl}piperazine]
COc1ccc(-c2ccc(N3CCN(CC(=O)N4CCN(C5CCC5)CC4)CC3)cc2)cc1OC [Compound 732, 1-cyclobutyl-4-{[4-(3′,4′-dimethoxybiphenyl-4-yl)piperazin-1-yl]acetyl}piperazine]
COc1ccc(N2CCN(CC(=O)N3CCN(C4CCC4)CC3)CC2)cc1OC [Compound 733, 1-cyclobutyl-4-{[4-(3,4-dimethoxyphenyl)piperazin-1-yl]acetyl}piperazine]
Cc1ccc(-c2ccc(N3CCN(CC(=O)N4CCN(C5CCC5)CC4)CC3)cc2)cc1C [Compound 735, 1-cyclobutyl-4-{[4-(3′,4′-dimethylbiphenyl-4-yl)piperazin-1-yl]acetyl}piperazine]
Cc1ccc(N2CCN(CC(=O)N3CCN(C4CCC4)CC3)CC2)cc1C [Compound 736, 1-cyclobutyl-4-{[4-(3,4-dimethylphenyl)piperazin-1-yl]acetyl}piperazine]
O=C(CN1CCN(c2ccc(-c3cc(Cl)cc(Cl)c3)cc2)CC1)N1CCN(C2CCC2)CC1 [Compound 739, 1-cyclobutyl-4-{[4-(3′,5′-dichlorobiphenyl-4-yl)piperazin-1-yl]acetyl}piperazine]
O=C(CN1CCN(c2ccc(-c3cc(F)cc(F)c3)cc2)CC1)N1CCN(C2CCC2)CC1 [Compound 740, 1-cyclobutyl-4-{[4-(3′,5′-difluorobiphenyl-4-yl)piperazin-1-yl]acetyl}piperazine]
